Test results from patent US6150385A, “1,3,4-thiadiazoles useful for the treatment of CMV infections” (Pharmacia & Upjohn Company, priority 1999, dated 2000).

Target: T1, HCMV polymerase (Human cytomegalovirus, UniProt P08546)
T1 construct: made in house; host or cells: SF-9 insect cells infected with recombinant baculovirus
Assay: HCMV polymerase assay (scintillation proximity assay)
Assay type: biochemical
Details: percentage of inhibition at 25 μM concentration in CMV polymerase assay
Description: The compounds of the present invention are tested in an polymerase assay to show activity described below, which is indicative of a compound's activity and thus of its use as an anti-viral agent.
The HCMV polymerase assay is performed using a scintillation proximity assay (SPA) as described in several references, such as N. D. Cook, et al., Pharmaceutical Manufacturing International, pages 49-53 (1992); K. Takeuchi, Laboratory Practice, September issue (1992); U.S. Pat. No. 4,568,649 (1986); which are incorporated by reference herein. Reactions are performed in 96-well plates. The assay is conducted in 100 μl volume with 5.4 mM HEPES (pH 7.5), 11.7 mM KCl, 4.5 mM MgCl2, 0.36 mg/ml BSA, and 90 nM ^3 H-dTTP. Assays are run with and without CHAPS, (3-[(3-Cholamidopropyl)-dimethylammonio]-1-propanesulfonate) at a final concentration of 2 mM. HCMV is diluted in enzyme dilution buffer containing 50% glycerol, 250 mM NaCl, 10 mM HEPES (pH 7.5), 100 μg/ml BSA, and 0.01% sodium azide. The HCMV polymerase, which is expressed in recombinant baculovirus-infected SF-9 cells and purified according to literature procedures, is added at 10% (or 10 μl) of the final reaction volume, i.e., 100 μl. Compounds are diluted in 50% DMSO and 10 μl are added to each well. Control wells contain an equivalent concentration of DMSO. Unless noted otherwise, reactions are initiated via the addition of 6 nM biotinylated poly(dA)-oligo(dT) template/primer to reaction mixtures containing the enzyme, substrate, and compounds of interest. Plates are incubated in a 25° C. or 37° C. H2 O bath and terminated via the addition of 40 μl/reaction of 0.5 M EDTA (pH 8) per well. Reactions are terminated within the time-frame during which substrate incorporation is linear and varied depending upon the enzyme and conditions used, i.e., 30 min. for HCMV polymerase. Ten μl of streptavidin-SPA beads (20 mg/ml in PBS/10% glycerol) are added following termination of the reaction. Plates are incubated 10 min. at 37° C., then equilibrated to room temperature, and counted on a Packard Topcount.
In TABLE 1, "MS" refers to mass spectral data, "% inhib" refers to percentage of inhibition at 25 μM concentration in CMV polymerase assay.

T1 sequence (P08546 whole entry): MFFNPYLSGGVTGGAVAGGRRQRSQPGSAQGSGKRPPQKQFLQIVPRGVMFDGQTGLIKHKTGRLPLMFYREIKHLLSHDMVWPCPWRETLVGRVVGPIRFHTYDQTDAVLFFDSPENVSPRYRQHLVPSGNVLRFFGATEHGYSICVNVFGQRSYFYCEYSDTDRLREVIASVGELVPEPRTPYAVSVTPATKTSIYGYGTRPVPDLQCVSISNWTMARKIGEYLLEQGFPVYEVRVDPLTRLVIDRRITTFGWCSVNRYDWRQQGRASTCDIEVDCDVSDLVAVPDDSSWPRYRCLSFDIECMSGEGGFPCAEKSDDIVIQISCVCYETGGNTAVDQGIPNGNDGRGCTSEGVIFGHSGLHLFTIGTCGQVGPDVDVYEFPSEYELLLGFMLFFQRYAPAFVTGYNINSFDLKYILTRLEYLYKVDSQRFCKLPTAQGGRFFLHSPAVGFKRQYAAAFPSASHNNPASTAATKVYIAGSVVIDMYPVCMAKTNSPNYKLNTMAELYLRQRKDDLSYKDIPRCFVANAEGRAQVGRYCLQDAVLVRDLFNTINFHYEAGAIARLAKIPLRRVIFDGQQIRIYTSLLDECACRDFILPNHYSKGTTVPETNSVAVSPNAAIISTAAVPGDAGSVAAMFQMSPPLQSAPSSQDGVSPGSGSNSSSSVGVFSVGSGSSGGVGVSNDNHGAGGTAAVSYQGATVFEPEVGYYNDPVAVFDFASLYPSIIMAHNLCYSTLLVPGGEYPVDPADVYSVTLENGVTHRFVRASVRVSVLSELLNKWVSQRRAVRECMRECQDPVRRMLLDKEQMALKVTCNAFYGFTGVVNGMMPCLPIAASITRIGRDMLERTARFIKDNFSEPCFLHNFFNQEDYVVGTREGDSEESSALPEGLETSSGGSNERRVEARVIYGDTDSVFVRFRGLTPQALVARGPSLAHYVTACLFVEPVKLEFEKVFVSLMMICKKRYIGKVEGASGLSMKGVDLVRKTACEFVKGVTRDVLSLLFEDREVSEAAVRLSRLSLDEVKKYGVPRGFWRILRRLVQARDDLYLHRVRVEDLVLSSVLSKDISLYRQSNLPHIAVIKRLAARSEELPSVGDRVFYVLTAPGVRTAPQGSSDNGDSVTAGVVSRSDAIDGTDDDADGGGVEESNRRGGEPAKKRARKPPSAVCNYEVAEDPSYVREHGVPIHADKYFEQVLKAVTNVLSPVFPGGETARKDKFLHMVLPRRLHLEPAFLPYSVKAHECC

| Compound | inhibition at 25 µM [%] |
| --- | --- |
| O=C(Nc1nnc(NC2CCN(Cc3ccccc3)CC2)s1)c1ccc2c(c1)C(=O)OC2=O [compound 85, N-{5-[(1-benzyl-4-piperidinyl)amino]-1,3,4-thiadiazol-2-yl}-1,3-dioxo-1,3-dihydro-2-benzofuran-5-carboxamide] | 67.3 |
| O=C(Nc1nnc(NC2CC2)s1)c1cc2ccccc2s1 [compound 287, N-[5-(cyclopropylamino)-1,3,4-thiadiazol-2-yl]-1-benzothiophene-2-carboxamide] | 36.2 |
| CCOc1ccc2ccccc2c1C(=O)Nc1nnc(NC2CCC2)s1 [compound 314, N-[5-(cyclobutylamino)-1,3,4-thiadiazol-2-yl]-2-ethoxy-1-naphthamide] | 33.8 |
| O=C(Nc1nnc(NCc2ccc(F)cc2)s1)c1cc2ccccc2s1 [compound 361, N-{5-[(4-fluorobenzyl)amino]-1,3,4-thiadiazol-2-yl}-1-benzothiophene-2-carboxamide] | 28.8 |
| CCCCCCCC/C=C/CCCCCCCC(=O)Nc1nnc(NCCN2CCCC2)s1 [compound 19, (E)-N-(5-{[2-(1-pyrrolidinyl)ethyl]amino}-1,3,4-thiadiazol-2-yl)-9-octadecenamide] | 97.7 |
| O=C(Nc1nnc(NCc2cccs2)s1)c1ccc(I)cc1 [compound 425, 4-iodo-N-{5-[(2-thienylmethyl)amino]-1,3,4-thiadiazol-2-yl}benzamide] | 23.5 |
| CCSCCNc1nnc(NC(=O)c2c(Cl)cccc2Cl)s1 [compound 292, 2,6-dichloro-N-(5-{[2-(ethylsulfanyl)ethyl]amino}-1,3,4-thiadiazol-2-yl)benzamide] | 35.6 |
| CCCCCCCCCCCNc1nnc(NC(=O)c2ccc(C(F)(F)F)cc2)s1 [compound 239, 4-(trifluoromethyl)-N-[5-(undecylamino)-1,3,4-thiadiazol-2-yl]benzamide] | 41.4 |
| O=C(Nc1nnc(NCc2ccc3c(c2)OCO3)s1)c1ccc(I)cc1 [compound 459, N-{5-[(1,3-benzodioxol-5-ylmethyl)amino]-1,3,4-thiadiazol-2-yl}-4-iodobenzamide] | 20.7 |
| O=C(Nc1nnc(NC2CCCCCC2)s1)c1ccc(I)cc1 [compound 288, N-[5-(cycloheptylamino)-1,3,4-thiadiazol-2-yl]-4-iodobenzamide] | 36.2 |
| O=C(/C=C/c1ccccc1Cl)Nc1nnc(NC2CCN(Cc3ccccc3)CC2)s1 [compound 110, (E)-N-{5-[(1-benzyl-4-piperidinyl)amino]-1,3,4-thiadiazol-2-yl}-3-(2-chlorophenyl)-2-propenamide] | 62.9 |
| O=C(Nc1nnc(NCCCCc2ccccc2)s1)c1ccc(Br)cc1 [compound 170, 4-bromo-N-{5-[(4-phenylbutyl)amino]-1,3,4-thiadiazol-2-yl}benzamide] | 50.5 |
| O=C(Nc1nnc(NCCCn2ccnc2)s1)c1ccc(Cl)c(Cl)c1 [compound 202, 3,4-dichloro-N-(5-{[3-(1H-imidazol-1-yl)propyl]amino}-1,3,4-thiadiazol-2-yl)benzamide] | 45 |
| CCSCCNc1nnc(NC(=O)c2ccc(Br)cc2)s1 [compound 309, 4-bromo-N-(5-{[2-(ethylsulfanyl)ethyl]amino}-1,3,4-thiadiazol-2-yl)benzamide] | 34 |
| O=C(Nc1nnc(NC2CCc3ccccc32)s1)c1ccc2c(c1)C(=O)OC2=O (centres unmarked) [compound 40, N-[5-(2,3-dihydro-1H-inden-1-ylamino)-1,3,4-thiadiazol-2-yl]-1,3-dioxo-1,3-dihydro-2-benzofuran-5-carboxamide] | 86.3 |
| CCCCCCCCCCCNc1nnc(NC(=O)CCCCCl)s1 [compound 106, 5-chloro-N-[5-(undecylamino)-1,3,4-thiadiazol-2-yl]pentanamide] | 64.2 |
| Cc1ccc(C(=O)Nc2nnc(NCCc3ccccc3)s2)cc1 [compound 359, 4-methyl-N-[5-(phenethylamino)-1,3,4-thiadiazol-2-yl]benzamide] | 29.1 |

Continued, values first:

| inhibition at 25 µM [%] | Compound |
| --- | --- |
| 31.7 | N#Cc1ccc(C(=O)Nc2nnc(NCCc3ccc(S(N)(=O)=O)cc3)s2)cc1 [compound 335, N-(5-{[4-(aminosulfonyl)phenethyl]amino}-1,3,4-thiadiazol-2-yl)-4-cyanobenzamide] |
| 89.9 | O=C(/C=C/c1ccccc1Cl)Nc1nnc(NCC2CC2)s1 [compound 34, (E)-3-(2-chlorophenyl)-N-{5-[(cyclopropylmethyl)amino]-1,3,4-thiadiazol-2-yl}-2-propenamide] |
| 37.3 | O=C(Nc1nnc(NCCC(c2ccccc2)c2ccccc2)s1)c1cc(F)cc(F)c1 [compound 281, N-{5-[(3,3-diphenylpropyl)amino]-1,3,4-thiadiazol-2-yl}-3,5-difluorobenzamide] |
| 24.7 | COc1ccccc1C(=O)Nc1nnc(NCc2ccc3c(c2)OCO3)s1 [compound 414, N-{5-[(1,3-benzodioxol-5-ylmethyl)amino]-1,3,4-thiadiazol-2-yl}-2-methoxybenzamide] |
| 47.1 | O=C(Nc1nnc(NCc2cccc3ccccc23)s1)c1cccc([N+](=O)[O-])c1 [compound 190, N-{5-[(1-naphthylmethyl)amino]-1,3,4-thiadiazol-2-yl}-3-nitrobenzamide] |
| 42.3 | Cc1ccc(C(=O)Nc2nnc(NCCc3ccc(S(N)(=O)=O)cc3)s2)cc1 [compound 230, N-(5-{[4-(aminosulfonyl)phenethyl]amino}-1,3,4-thiadiazol-2-yl)-4-methylbenzamide] |
| 24.9 | CCCCCCCCCCCNc1nnc(NC(=O)c2c(Cl)cccc2Cl)s1 [compound 410, 2,6-dichloro-N-[5-(undecylamino)-1,3,4-thiadiazol-2-yl]benzamide] |
| 89.7 | CC(C)c1cc(C(C)C)c(C(=O)Nc2nnc(NCc3ccc(S(N)(=O)=O)cc3)s2)c(C(C)C)c1 [compound 35, N-(5-{[4-(aminosulfonyl)benzyl]amino}-1,3,4-thiadiazol-2-yl)-2,4,6-triisopropylbenzamide] |
| 24.7 | O=C(Nc1nnc(NCCCCc2ccccc2)s1)c1cccc([N+](=O)[O-])c1 [compound 413, 3-nitro-N-{5-[(4-phenylbutyl)amino]-1,3,4-thiadiazol-2-yl}benzamide] |
| 43.6 | CC(C)c1cc(C(C)C)c(C(=O)Nc2nnc(NCCc3c[nH]c4ccccc34)s2)c(C(C)C)c1 [compound 219, N-(5-{[2-(1H-indol-3-yl)ethyl]amino}-1,3,4-thiadiazol-2-yl)-2,4,6-triisopropylbenzamide] |
| 35.1 | O=C(Nc1nnc(NCCCN2CCCC2=O)s1)c1ccc([N+](=O)[O-])o1 [compound 296, 5-nitro-N-(5-{[3-(2-oxo-1-pyrrolidinyl)propyl]amino}-1,3,4-thiadiazol-2-yl)-2-furamide] |
| 34 | COc1ccccc1C(=O)Nc1nnc(NC2CCCCCC2)s1 [compound 310, N-[5-(cycloheptylamino)-1,3,4-thiadiazol-2-yl]-2-methoxybenzamide] |
| 64.6 | CCCCCCCC/C=C/CCCCCCCC(=O)Nc1nnc(NCCc2ccccc2)s1 [compound 105, (E)-N-[5-(phenethylamino)-1,3,4-thiadiazol-2-yl]-9-octadecenamide] |
| 70.4 | CCOc1ccc2ccccc2c1C(=O)Nc1nnc(NCc2ccccn2)s1 [compound 70, 2-ethoxy-N-{5-[(2-pyridinylmethyl)amino]-1,3,4-thiadiazol-2-yl}-1-naphthamide] |
| 24.1 | CC(C)(C)OC(=O)CCNc1nnc(NC(=O)c2ccc(Cl)c(Cl)c2)s1 [compound 420, tert-butyl 3-({5-[(3,4-dichlorobenzoyl)amino]-1,3,4-thiadiazol-2-yl}amino)propanoate] |
| 27.5 | O=C(/C=C/c1ccccc1)Nc1nnc(NCCNc2ccccc2)s1 [compound 379, (E)-N-{5-[(2-anilinoethyl)amino]-1,3,4-thiadiazol-2-yl}-3-phenyl-2-propenamide] |
| 93.1 | CCOc1ccc2ccccc2c1C(=O)Nc1nnc(NCc2ccc(S(N)(=O)=O)cc2)s1 [compound 26, N-(5-{[4-(aminosulfonyl)benzyl]amino}-1,3,4-thiadiazol-2-yl)-2-ethoxy-1-naphthamide] |
| 44.3 | CCSCCNc1nnc(NC(=O)/C=C/c2ccccc2)s1 [compound 211, (E)-N-(5-{[2-(ethylsulfanyl)ethyl]amino}-1,3,4-thiadiazol-2-yl)-3-phenyl-2-propenamide] |
